Assay results published in patent US6583118B1, “Chondroprotective agents” (Kureha Chemical Industry Co., Ltd., priority 1993, dated 2003).

Legend:
[1] = test system: chondrocyte culture (derived from cartilage of rabbit shoulder and knee joints); assay: Effect of test compounds on proteoglycan depletion in chondrocyte culture (PMA-induced, GAG content); type: cell-based, rabbit (New Zealand white Rabbits); conditions: for Relative amount of GAG: control without PMA = 100
Method: The cartilages were sterilely extracted from the shoulder and knee joints of rabbits (New Zealand white Rabbits) (body weight of 1 to 1.5 kg). The cartilages were thoroughly washed with PBS (−) (free of Ca^2+, Mg^2+), Hanks' solution and 0.1% EDTA-PBS (−), and then cut into small segments (1 mm×1 mm×1 mm). After PBS (−) containing 0.1% EDTA was added, the segments were allowed to stand in an incubator of 37° C. for 30 minutes. Then, the segments were treated with a trypsin solution (0.25%) at 37° C. for one hour to remove the connective tissue adhered to the cartilage. After the supernatant had been removed, the cartilages were treated for about 2 to 2.5 hours in a Ham F-12 medium containing 10% fetal bovine serum (FBS) and 0.2% collagenase. Then, the collagenase solution was centrifuged (1500 r.p.m.), and the residual chondrocytes were washed twice with a Ham F-12 medium (chondrocyte culture medium) containing 10% FBS. Finally, the resulting suspension was adjusted so that the chondrocytes were suspended in the concentration of 3×10^5 cells/ml in the chondrocyte culture medium. The chondrocytes were seeded in an amount of 1 ml/well on 24-well plates. The chondrocytes became confluent after 4 days. The experiment were performed within two weeks after reaching the confluent stage.
The chondrocyte culture medium which had been used for cultivating the chondrocytes was removed from each well and 800 μl of fresh serum-free S-Clone medium containing 0.1% human serum albumin was added. Further, 100 μl of S-Clone medium containing the compounds to be tested (containing the compound in the concentration of 10 fold the final concentration; DMSO concentration=2.5%) was added. The chondrocytes were cultured in the presence of carbon dioxide (5%) and air (95%) for 2 hours. Then, the proteoglycan depleting agent, PMA (phorbol myristate acetate) (final concentration=0.1 μg/ml) was added into the culture medium of the chondrocytes.
Proteoglycan depletion was determined by the measurement of the glycosaminoglycan (major constituent of proteoglycan, hereinafter referred to as GAG) content following digestion of the chondrocyte matrix with papain.
After 2 days, the supernatant of the chondrocyte culture was removed. Then, 1 ml of 0.03 […] papaine solution was added to the remaining chondrocyte matrix layer and a reaction was performed at 65° C. for 1 hour to liberate the GAG from the matrix layer. The content of the GAG in the treated papaine solution was determined by the 1,9-dimethylmethylene blue method (refer to R. W. Farndale, Biochim. Biophys. Acta., Vol. 883, pp. 173 to 177, 1986). The GAG content in the chondrocyte matrix of the control test wherein the proteoglycan depleting agent was not added was shown as “100”, and the relative amount of the GAG of each experiment except the control test was calculated by following formula:
GAG relative amount (%)=(B/A)×100
wherein A represents the GAG content of the control tests wherein the proteoglycan depleting agent was not added, and B represents the GAG content wherein the proteoglycan depleting agents were added alone or the GAG content wherein the proteoglycan depleting agents and the compounds to be tested were added.
The GAG content is the value of the mean value ± standard error (n=3 to 6). For each of the compounds to be tested, the control test and the proteoglycan depleting test wherein the proteoglycan depleting agent was added were carried out and the results thereof are also shown. The significance was determined by Student's t-test with respect to the proteoglycan depleting test wherein the proteoglycan depleting agent was added.

BALB/c mice = assay: Observation for a week after oral administration to BALB/c mice; type: in vivo, mouse; conditions: 100 mg/kg
Method: The same results were obtained where hesperidin, acacetin, diosmetin, apigenin, luteolin, or kaempferol was administered.

Mouse = assay: Acute toxicity, mouse LD50; type: in vivo; conditions: intravenous injection
[2] = Acute toxicity, mouse LD50; type: in vivo; conditions: in vivo, oral administration
[3] = PMA 0.1 μg/ml + test compound 100 μM, chondrocyte matrix after 2 days, mean ± standard error (n=3 to 6)
[4] = PMA 0.1 μg/ml + test compound 100 μM
[5] = BALB/c mice (female, seven weeks old), oral

abnormalities observed for a week after administration (BALB/c mice; mouse, in vivo, po) | SMILES | GAG content [1, 3] [µg/mL] | Relative amount of GAG [1, 4] | further results
no abnormalities were observed | O=c1cc(-c2ccc(O)cc2)oc2cc(O)cc(O)c12 [No. 5, Apigenin] | 33.3 ± 0.7 | (60.9) % | 
no abnormalities were observed | O=c1cc(-c2ccc(O)c(O)c2)oc2cc(O)cc(O)c12 [No. 8, Luteolin] | 28.6 ± 0.5 | (52.2) % | 
 | COc1ccc(-c2cc(=O)c3c(O)cc(O[C@@H]4O[C@H](CO[C@@H]5O[C@@H](C)[C@H](O)[C@@H](O)[C@H]5O)[C@@H](O)[C@H](O)[C@H]4O)cc3o2)cc1 [No. 12, Linarin] | 19.8 ± 0.7 | (35.8) % | 
no abnormalities were observed | COc1ccc(-c2cc(=O)c3c(O)cc(O)cc3o2)cc1O [No. 13, Diosmetin] | 27.1 ± 0.7 | (49.0) % | 
 | O=c1cc(-c2ccccc2)oc2cc(O)c(O)c(O)c12 [No. 15, Baicalein] | 7.67 ± 0.5 | (68.3) % | 
 | O=c1c(O)c(-c2ccc(O)c(O)c2)oc2cc(O)ccc12 [No. 16, Fisetin] | 30.1 ± 0.9 | (55.7) % | LD50 (Mouse): 180 mg/kg
no abnormalities were observed | O=c1c(O)c(-c2ccc(O)cc2)oc2cc(O)cc(O)c12 [No. 17, Kaempferol] | 30.5 ± 0.3 | (55.7) % | 
 | O=c1c(O)c(-c2ccc(O)c(O)c2)oc2cc(O)cc(O)c12 [No. 22, Quercetin] | 31.0 ± 0.6 | (55.3) % | LD50 [2]: 160 mg/kg
 | COc1ccc([C@@H]2CC(=O)c3c(O)cc(O)cc3O2)cc1O [No. 41, Hesperetin] | 28.7 ± 0.4 | (48.6) % | abnormalities observed for a week after administration (BALB/c mice; [5]): no abnormalities were observed
 | COc1ccc([C@@H]2CC(=O)c3c(O)cc(O[C@@H]4O[C@H](CO[C@@H]5O[C@@H](C)[C@H](O)[C@@H](O)[C@H]5O)[C@@H](O)[C@H](O)[C@H]4O)cc3O2)cc1O [No. 42, Hesperidin] | 24.0 ± 0.6 | (42.8) % | abnormalities observed for a week after administration (BALB/c mice; [5]): no abnormalities were observed
 | COc1ccc2c(c1)c(CC(=O)O)c(C)n2C(=O)c1ccc(Cl)cc1 [indometacin, Indometacin, reference compound] |  |  | Relative amount of GAG ([1]; PMA 0.1 μg/ml + indometacin 10 μM): (47.1) %; GAG content ([1]; PMA 0.1 μg/ml + indometacin 10 μM, mean ± standard error): 13.2 ± 0.6 µg/mL; Relative amount of GAG ([1]; PMA 0.1 μg/ml + indometacin 33 μM): (41.8) %; GAG content ([1]; PMA 0.1 μg/ml + indometacin 33 μM, mean ± standard error): 11.7 ± 0.8 µg/mL

SMILES | abnormalities observed for a week after administration (BALB/c mice; mouse, in vivo, po) | GAG content [1, 3] [µg/mL] | Relative amount of GAG [1, 4] | further results
COc1ccc(-c2cc(=O)c3c(O)cc(O)cc3o2)cc1 [No. 11, Acacetin] | no abnormalities were observed | 24.2 ± 0.3 | (44.8) % | 
